Tests used:
[1] = system: rats; details: intravenous or subcutaneous administration; cited from earlier work
[2] = system: isolation-induced aggressive mice; details: White et al. 1991; cited from earlier work
[3] = system: monkeys with a preference for alcohol; details: cited from earlier work
[4] = system: male Wistar rats; experiment: Ethanol consumption, free choice between water and 5% aqueous ethanol; details: zalospirone 40 mg/kg, fluoxetine 10 mg/kg intraperitoneal; for ethanol consumed compared to control (Ringer's solution): treatment periods, g/kg or ml/rat basis
Description: A 12 hour light/dark cycle was programmed with darkness commencing at 1900 hr. […] The drinking tube positions were switched daily. The ethanol concentration was increased by 1% every 3 days until a concentration of 5% was reached. All rats were weighed daily and water or aqueous ethanol intake recorded.
After 3 days at the 5% ethanol concentration the rats that had consumed the 5% ethanol consistently began baseline and the inconsistent or poor drinkers were dropped from the study. A total of 30 rats began baseline studies. Baseline consisted of 8 days of free choice between water and 5% aqueous ethanol. During this time each rat received intraperitoneal injections of Ringer's solution (NaCl, 0.86 g; KCl, 0.03 g; and CaCl2.2H2 O, 0.033 g diluted to 100 ml with distilled water). Weight and water or 5% aqueous ethanol consumption were determined daily at 0800 hr and 1800 hr.

[5] = system: mice; details: White et al. 1991; cited from earlier work

Compound | paradoxical sleep [1] | slow wave sleep [1] | wakefulness [1] | aggression in isolation-induced aggressive mice [2] | ethanol consumed compared to control (Ringer's solution) [4] | total fluid intake vs control animals [4] | water consumption, treated vs. control rats [4] | further results
CCCN(CCC)C1CCc2cccc(O)c2C1 (centres unmarked) [8-OH-DPAT, 8-hydroxy-2-(di-n-propylamino)tetralin] | reduced | reduced | increased wakefulness | – | – | – | – | –
O=C1CC2(CCCC2)CC(=O)N1CCCCN1CCN(c2ncccn2)CC1 [buspirone] | reduced | reduced | increased wakefulness | reduce aggression | – | – | – | preference for alcohol [3]: lower the preference for alcohol
CNCCC(Oc1ccc(C(F)(F)F)cc1)c1ccccc1 (centres unmarked) [fluoxetine] | – | – | – | – | significantly less ethanol | less than with the control animals | no significant differences | food consumption compared to control rats [4]: decreased food consumption; weight gain compared to control rats [4]: significantly less weight gain
CC1(C)CC(=O)N(CCCCN2CCN(c3ncccn3)CC2)C(=O)C1 [gepirone] | – | – | – | reduce aggression | – | – | – | –
O=C1c2ccccc2S(=O)(=O)N1CCCCN1CCN(c2ncccn2)CC1 [ipsapirone] | – | – | – | reduce aggression | – | – | – | –
O=C1C2C3C=CC(C4C=CC43)C2C(=O)N1CCCCN1CCN(c2ncccn2)CC1 (centres unmarked) [zalospirone, 3a,4,4a,6a,7a-hexahydro-2-[4-[4-(2-pyrimidinyl)-1-piperazinyl]butyl]-4,7-ethano-1H-cyclobut[f]isoindole-1,3(2H)-dione] | – | – | – | reduce aggression | significantly less ethanol | less than with the control animals | no significant differences | debilitating (sedating) effects at the antiaggressive dose [5]: without the debilitating (sedating) effects
